# Measurements taken from US20120142705A1, “ISATIN AND OXINDOLE COMPOUNDS” (priority 2010, published 2012).
# Molecular target: T1, Recombinant human liver GK1 (GST-GK) (Homo sapiens, UniProt P35557)
# T1 construct: made in house; host or cells: E. coli
# T1 sequence (P35557 1-466 isoform P35557-2): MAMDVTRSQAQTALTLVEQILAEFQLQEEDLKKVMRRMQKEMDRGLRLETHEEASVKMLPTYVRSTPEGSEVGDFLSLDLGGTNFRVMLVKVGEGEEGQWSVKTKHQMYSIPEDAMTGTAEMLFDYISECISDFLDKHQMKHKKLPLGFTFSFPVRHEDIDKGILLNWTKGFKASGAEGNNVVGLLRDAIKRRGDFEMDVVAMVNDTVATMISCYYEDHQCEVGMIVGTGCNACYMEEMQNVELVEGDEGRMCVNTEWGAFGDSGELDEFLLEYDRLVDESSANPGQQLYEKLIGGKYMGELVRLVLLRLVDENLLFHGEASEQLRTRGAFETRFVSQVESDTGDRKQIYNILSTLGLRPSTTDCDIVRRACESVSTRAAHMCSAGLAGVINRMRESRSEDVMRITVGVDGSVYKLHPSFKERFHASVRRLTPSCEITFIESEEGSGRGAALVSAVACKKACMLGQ
# Test: In vitro glucokinase activity, G6PDH-coupled spectrophotometric assay
# Type: biochemical
# Conditions: 5 mM D-glucose, 30° C., pH 7.1
# Outline: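 GST-fused human liver GK1 from E. coli, run at 30° C. in pH 7.1 HEPES with 5 mM glucose, 1 mM ATP and 10% DMSO, coupled via G6PDH to NADH. OD340 rate measured after enzyme start; SC1.5 is the activator concentration raising activity 50% over DMSO control.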
row,SC1.5 (concentration of activator that produced a 50% increase in the activity of GK),Structure (SMILES)
1,1.28 µM,"O=C(Nc1cnccn1)C(CC1CCCC1)N1C(=O)Cc2cc(Br)ccc21 (centres unmarked) [Example 67, 2-(5-Bromo-2-oxo-2,3-dihydro-indol-1-yl)-3-cyclopentyl-N-pyrazin-2-yl-propionamide]"
2,22.88 µM,"Cc1ccc2c(c1)CC(=O)N2C(CC(C)C)C(=O)Nc1nccs1 (centres unmarked) [Example 88, 4-Methyl-2-(5-methyl-2-oxo-2,3-dihydro-indol-1-yl)-pentanoic acid thiazol-2-ylamide]"
3,0.49 µM,"O=C(Nc1nccs1)C(CC1CCCC1)N1C(=O)Cc2cc(OC(F)(F)F)ccc21 (centres unmarked) [Example 35, 3-Cyclopentyl-2-(2-oxo-5-trifluoromethoxy-2,3-dihydro-indol-1-yl)-N-thiazol-2-yl-propionamide]"
4,6.5 µM,"Cn1ccc(NC(=O)C(CC2CCCC2)N2C(=O)C(=O)c3c(Cl)cccc32)n1 (centres unmarked) [Example 15, 2-(4-Chloro-2,3-dioxo-2,3-dihydro-indol-1-yl)-3-cyclopentyl-N-(1-methyl-1H-pyrazol-3-yl)-propionamide]"
5,13.42 µM,"CC(C)CC(C(=O)Nc1ccccn1)N1C(=O)C(=O)c2c(Cl)cccc21 (centres unmarked) [Example 18, 2-(4-Chloro-2,3-dioxo-2,3-dihydro-indol-1-yl)-4-methyl-pentanoic acid pyridin-2-ylamide]"
6,16.22 µM,"CC(C)CC(C(=O)Nc1nccs1)N1C(=O)Cc2ccccc21 (centres unmarked) [Example 11, 4-Methyl-2-(2-oxo-2,3-dihydro-indol-1-yl)-pentanoic acid thiazol-2-ylamide]"
7,0.95 µM,"O=C1C(=O)N(C(CC2CCCC2)C(=O)Nc2ccccn2)c2ccc(Br)cc21 (centres unmarked) [Example 61, 2-(5-Bromo-2,3-dioxo-2,3-dihydro-indol-1-yl)-3-cyclopentyl-N-pyridin-2-yl-propionamide]"
8,3.91 µM,"O=C1C(=O)N(C(CC2CCCC2)C(=O)Nc2nccs2)c2cccc(Cl)c21 (centres unmarked) [Example 16, 2-(4-Chloro-2,3-dioxo-2,3-dihydro-indol-1-yl)-3-cyclopentyl-N-thiazol-2-yl-propionamide]"
9,5.93 µM,"O=C(Nc1cnccn1)C(CC1CCCC1)N1C(=O)Cc2ccccc21 (centres unmarked) [Example 2, 3-Cyclopentyl-2-(2-oxo-2,3-dihydro-indol-1-yl)-N-pyrazin-2-yl-propionamide]"
10,22.75 µM,"COc1ccc2c(c1)CC(=O)N2C(CC(C)C)C(=O)Nc1nccs1 (centres unmarked) [Example 56, 2-(5-Methoxy-2-oxo-2,3-dihydro-indol-1-yl)-4-methyl-pentanoic acid thiazol-2-ylamide]"
11,4.93 µM,"O=C(Nc1ccccn1)C(CC1CCCC1)N1C(=O)Cc2ccccc21 (centres unmarked) [Example 8, 3-Cyclopentyl-2-(2-oxo-2,3-dihydro-indol-1-yl)-N-pyridin-2-yl-propionamide]"
12,7.4 µM,"Cn1ccc(NC(=O)C(CC2CCCC2)N2C(=O)Cc3c(Cl)cccc32)n1 (centres unmarked) [Example 23, 2-(4-Chloro-2-oxo-2,3-dihydro-indol-1-yl)-3-cyclopentyl-N-(1-methyl-1H-pyrazol-3-yl)-propionamide]"
13,3.3 µM,"Cn1ccc(NC(=O)C(CC2CCCC2)N2C(=O)Cc3cc(Cl)ccc32)n1 (centres unmarked) [Example 99, 2-(5-Chloro-2-oxo-2,3-dihydro-indol-1-yl)-3-cyclopentyl-N-(1-methyl-1H-pyrazol-3-yl)-propionamide]"
14,0.23 µM,"Cc1ccc2c(c1)N(C(CC1CCCC1)C(=O)Nc1ccccn1)C(=O)C2 (centres unmarked) [Example 132, 3-Cyclopentyl-2-(6-methyl-2-oxo-2,3-dihydro-indol-1-yl)-N-pyridin-2-yl-propionamide]"
15,0.63 µM,"O=C(Nc1cnccn1)C(CC1CCCC1)N1C(=O)Cc2cc(OC(F)(F)F)ccc21 (centres unmarked) [Example 36, 3-Cyclopentyl-2-(2-oxo-5-trifluoromethoxy-2,3-dihydro-indol-1-yl)-N-pyrazin-2-yl-propionamide]"
16,7.27 µM,"CC(C)CC(C(=O)Nc1ccn(C)n1)N1C(=O)Cc2ccc(Cl)cc21 (centres unmarked) [Example 116, 2-(6-Chloro-2-oxo-2,3-dihydro-indol-1-yl)-4-methyl-pentanoic acid (1-methyl-1H-pyrazol-3-yl)-amide]"
17,2.71 µM,"Cn1ccc(NC(=O)C(CC2CCCC2)N2C(=O)Cc3cc(Br)ccc32)n1 (centres unmarked) [Example 65, 2-(5-Bromo-2-oxo-2,3-dihydro-indol-1-yl)-3-cyclopentyl-N-(1-methyl-1H-pyrazol-3-yl)-propionamide]"
18,11.4 µM,"CC(C)CC(C(=O)Nc1cnccn1)N1C(=O)Cc2cc(Br)ccc21 (centres unmarked) [Example 75, 2-(5-Bromo-2-oxo-2,3-dihydro-indol-1-yl)-4-methyl-pentanoic acid pyrazin-2-ylamide]"

# Same assay, conditions: @ 30 uM; 5 mM D-glucose, 30° C.
row,fold induction at 30 µM,Structure (SMILES)
1,1.31,"COc1ccc2c(c1)CC(=O)N2C(CC(C)C)C(=O)Nc1cnccn1 (centres unmarked) [Example 58, 2-(5-Methoxy-2-oxo-2,3-dihydro-indol-1-yl)-4-methyl-pentanoic acid pyrazin-2-ylamide]"
2,1.29,"Cc1ccc2c(c1)C(=O)C(=O)N2C(CC(C)C)C(=O)Nc1cnccn1 (centres unmarked) [Example 84, 4-Methyl-2-(5-methyl-2,3-dioxo-2,3-dihydro-indol-1-yl)-pentanoic acid pyrazin-2-ylamide]"
